Laboratory results as given in patent US20100120778A1, “QUINOXALINE-BASED LXR MODULATORS” (Wyeth, priority 2008, published 2010).

Key:
human LXRβ = biological target: T1, human LXRβ (Homo sapiens, UniProt P55055); assay: Ligand-binding test procedure for human LXRβ (3H T0901317 tracer, flash plates); conditions: biotinylated hLXRβ, tracer 3H T0901317, +4° C. over night
T1 construct: biotin (biotinylated); made in house; host or cells: E. coli
T1 sequence (P55055 1-460): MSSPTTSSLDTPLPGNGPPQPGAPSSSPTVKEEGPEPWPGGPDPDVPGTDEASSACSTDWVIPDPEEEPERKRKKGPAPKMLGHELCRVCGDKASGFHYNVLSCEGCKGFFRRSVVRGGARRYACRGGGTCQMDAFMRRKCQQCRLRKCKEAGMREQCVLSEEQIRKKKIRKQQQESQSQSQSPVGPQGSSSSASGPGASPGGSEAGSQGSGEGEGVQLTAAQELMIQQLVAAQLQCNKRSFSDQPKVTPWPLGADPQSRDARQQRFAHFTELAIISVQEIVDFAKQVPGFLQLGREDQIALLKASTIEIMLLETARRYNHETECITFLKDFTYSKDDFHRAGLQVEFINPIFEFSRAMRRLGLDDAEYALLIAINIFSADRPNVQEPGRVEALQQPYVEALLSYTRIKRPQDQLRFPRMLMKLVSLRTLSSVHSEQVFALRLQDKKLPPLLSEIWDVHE
Protocol: I. Ligand-Binding Test Procedure for Human LXRβ.
Receptor source: E. coli extracted from cells expressing biotinylated hLXRβ. Extract was made in a similar buffer as above, but with 50 mM TRIS.
Washed streptavidin and coated flash plates with wash buffer. Diluted receptor extract to give Bmax˜4000 cpm and add to the wells. Wrapped the plates in aluminum foil and stored them at +4° C. overnight.
(§1) Made a dilution series in DMSO of the test ligands. Made a 5 nM solution of the radioactive tracer in buffer. Mixed 250 μl diluted tracer with 5 μl of the test ligand from each concentration of the dilution series. Washed the receptor-coated flash plates. Added 200 μl per well of the ligand/radiolabel mixture to the receptor-coated flash plates. Wrapped the plates in aluminum foil and incubate at +4° C. over night.
Aspirated wells, and washed the flashed plates. Sealed the plate.
Measured the remaining radioactivity in the plate.

human LXRα = biological target: T2, human LXRα (Homo sapiens, UniProt Q13133); assay: Ligand-binding test procedure for human LXRα (3H T0901317 tracer, flash plates); conditions: biotinylated hLXRα, tracer 3H T0901317, +4° C. over night
T2 construct: biotin (biotinylated); made in house; host or cells: E. coli
T2 sequence (Q13133 1-447): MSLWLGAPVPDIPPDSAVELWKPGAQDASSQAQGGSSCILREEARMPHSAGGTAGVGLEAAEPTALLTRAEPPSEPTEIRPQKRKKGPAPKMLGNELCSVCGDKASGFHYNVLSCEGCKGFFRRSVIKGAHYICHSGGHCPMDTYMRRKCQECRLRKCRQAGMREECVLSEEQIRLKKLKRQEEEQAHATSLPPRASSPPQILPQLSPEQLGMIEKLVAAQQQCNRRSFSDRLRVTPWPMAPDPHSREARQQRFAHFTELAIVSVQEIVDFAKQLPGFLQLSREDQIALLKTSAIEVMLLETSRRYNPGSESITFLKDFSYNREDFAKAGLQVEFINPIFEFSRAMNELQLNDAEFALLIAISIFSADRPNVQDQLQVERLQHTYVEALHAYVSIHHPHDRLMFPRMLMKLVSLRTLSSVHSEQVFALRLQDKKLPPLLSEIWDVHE
Protocol: II. Ligand-Binding Test Procedure for Human LXRα.
Receptor source: E. coli extract from cells expressing biotinylated hLXRα. Extract was made in a similar buffer as above, but with 50 mM TRIS.
Washed streptavidin and coated flash plates with wash buffer. Diluted receptor extract to give Bmax˜4000 cpm and add to the wells. Wrapped the plates in aluminum foil and stored them at +4° C. over night.
as §1
Aspirated wells, and wash the flashed plates. Sealed the plate. Measured the remaining radioactivity in the plate.

Compound: Cc1nc2cccc(Cl)c2nc1-c1ccc(-c2cccc(S(C)(=O)=O)c2)cc1 [Example 68, 5-chloro-2-methyl-3-[3′-(methylsulfonyl)biphenyl-4-yl]quinoxaline]
- IC50 (human LXRβ): 0.235 µM
- IC50 (human LXRα): > 1 µM

Compound: Cc1nc2c(Cl)cccc2nc1Oc1cccc(-c2cccc(S(C)(=O)=O)c2)c1 [Example 80, 5-chloro-3-methyl-2-{[3′-(methylsulfonyl)biphenyl-3-yl]oxy}quinoxaline]
- IC50 (human LXRβ): 0.108 µM
- IC50 (human LXRα): 0.818 µM

Compound: Cc1nc2c(Cl)cccc2nc1Oc1ccc(-c2cccc(NS(C)(=O)=O)c2)cc1 [Example 93, N-{4′-[(5-chloro-3-methylquinoxalin-2-yl)oxy]biphenyl-3-yl}methanesulfonamide]
- IC50 (human LXRβ): 0.869 µM
- IC50 (human LXRα): 3.53 µM

Compound: CCS(=O)(=O)c1cccc(Oc2ccc(Cl)c(-c3nc4c(C(F)(F)F)cccc4nc3C)c2)c1 [Example 61, 3-{2-chloro-5-[3-(ethylsulfonyl)phenoxy]phenyl}-2-methyl-5-(trifluoromethyl)quinoxaline]
- IC50 (human LXRβ): 0.029 µM
- IC50 (human LXRα): 0.366 µM

Compound: Cc1nc2cccc(C(F)(F)F)c2nc1-c1ccc(-c2cncc(S(C)(=O)=O)c2)cc1 [Example 73, 2-methyl-3-{4-[5-(methylsulfonyl)pyridin-3-yl]phenyl}-5-(trifluoromethyl)quinoxaline]
- IC50 (human LXRβ): 0.123 µM
- IC50 (human LXRα): > 1 µM

Compound: Cc1nc2cccc(C(F)(F)F)c2nc1-c1ccc(-c2cccc(S(C)(=O)=O)c2)cc1F [Example 6, 3-[3-fluoro-3′-(methylsulfonyl)biphenyl-4-yl]-2-methyl-5-(trifluoromethyl)quinoxaline]
- IC50 (human LXRβ): 0.398 µM
- IC50 (human LXRα): > 1 µM

Compound: Cc1nc2ccccc2nc1-c1cc(Oc2cccc(S(C)(=O)=O)c2)ccc1Cl [Example 66, 2-{2-chloro-5-[3-(methylsulfonyl)phenoxy]phenyl}-3-methylquinoxaline]
- IC50 (human LXRβ): 0.361 µM
- IC50 (human LXRα): > 1 µM

Compound: Cc1nc2c(C(F)(F)F)cccc2nc1-c1cc(Oc2ccccc2S(C)(=O)=O)ccc1Cl [Example 46, 2-{2-chloro-5-[2-(methylsulfonyl)phenoxy]phenyl}-3-methyl-5-(trifluoromethyl)quinoxaline]
- IC50 (human LXRβ): 1.46 µM
- IC50 (human LXRα): 1.62 µM

Compound: Cc1nc2c(C#N)cccc2nc1-c1ccc(-c2cccc(S(C)(=O)=O)c2)cc1 [Example 71, 3-methyl-2-[3′-(methylsulfonyl)biphenyl-4-yl]quinoxaline-5-carbonitrile]
- IC50 (human LXRα): > 1 µM

Compound: O=S(=O)(CCCO)c1cccc(Oc2cccc(-c3cnc4cccc(C(F)(F)F)c4n3)c2)c1 [Example 11, 3-[(3-{3-[8-(trifluoromethyl)quinoxalin-2-yl]phenoxy}phenyl)sulfonyl]propan-1-ol]
- IC50 (human LXRβ): 2.48 µM
- IC50 (human LXRα): > 1 µM

Compound: Cc1nc2c(C(F)(F)F)cccc2nc1-c1cc(Oc2cccc(S(=O)(=O)CCCO)c2)ccc1Cl [Example 58, 3-[(3-{4-chloro-3-[3-methyl-5-(trifluoromethyl)quinoxalin-2-yl]phenoxy}phenyl)sulfonyl]-propan-1-ol]
- IC50 (human LXRβ): 0.0635 µM
- IC50 (human LXRα): 0.81 µM

Compound: Cc1nc2c(C(F)(F)F)cccc2nc1-c1cc(Oc2cccc(S(=O)(=O)CCCF)c2)ccc1Cl [Example 75, 2-(2-chloro-5-{3-[(3-fluoropropyl)sulfonyl]phenoxy}phenyl)-3-methyl-5-(trifluoromethyl)-quinoxaline]
- IC50 (human LXRβ): 0.287 µM
- IC50 (human LXRα): 2.19 µM

Compound: Cc1nc2c(C(F)(F)F)cccc2nc1-c1cc(Oc2cccc(S(=O)(=O)CCCCl)c2)ccc1Cl [Example 76, 2-(2-chloro-5-{3-[(3-chloropropyl)sulfonyl]phenoxy}phenyl)-3-methyl-5-(trifluoromethyl)-quinoxaline]
- IC50 (human LXRβ): 0.204 µM
- IC50 (human LXRα): 0.401 µM

Compound: CS(=O)(=O)c1cccc(-c2cccc(Oc3cnc4c(Cl)cccc4n3)c2)c1 [Example 78, 5-chloro-2-{[3′-(methylsulfonyl)biphenyl-3-yl]oxy}quinoxaline]
- IC50 (human LXRβ): 0.263 µM
- IC50 (human LXRα): > 1 µM

Compound: COc1cccc2nc(-c3ccc(-c4cccc(S(C)(=O)=O)c4)cc3)c(C)nc12 [Example 70, 5-methoxy-3-methyl-2-[3′-(methylsulfonyl)biphenyl-4-yl]quinoxaline]
- IC50 (human LXRα): > 1 µM
